Measurements as given in ChEMBL document CHEMBL1201862, “PubChem BioAssay data set” (2004).
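Tested at 5 concentrations; 48 h exposure; 96-well plates; endpoints linearly interpolated, else capped at highest concentration. GI50 marks 50% less growth.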 The source made the active and inactive calls. Rule as the data show it: active = GI50 up to about 1.1 µM and inactive = higher.

How the values were obtained:
Experiment in all cases: NCI-60 cell line screen, 48 h
[1] = system: CAKI-1
[2] = system: OVCAR-5
[3] = system: 786-0
[4] = system: CCRF-CEM
[5] = system: M19-MEL
[6] = system: Malme-3M
[7] = system: NCI-H226
[8] = system: SR
[9] = system: SF-268
[10] = system: A498
[11] = system: SF-539
[12] = system: UO-31
[13] = system: SK-MEL-28
[14] = system: SF-295
[15] = system: KM-20L2
[16] = system: NCI-H23
[17] = system: HCC 2998
[18] = system: SW-620
[19] = system: LOX IMVI
[20] = system: DU-145

| SMILES | GI50 [1] | GI50 [2] | GI50 [3] | GI50 [4] | GI50 [5] | GI50 [6] | GI50 [7] | GI50 [8] | GI50 [9] | GI50 [10] | GI50 [11] | GI50 [12] | GI50 [13] | GI50 [14] | GI50 [15] | GI50 [16] | GI50 [17] | GI50 [18] | GI50 [19] | GI50 [20] |
| --- | --- | --- | --- | --- | --- | --- | --- | --- | --- | --- | --- | --- | --- | --- | --- | --- | --- | --- | --- | --- |
| COc1cc(OC)c2c(c1)C(=O)C(CC(C)O)=CC2=O (configuration not stated) | 20.1 µM (inactive) | 18.4 µM (inactive) | 16.2 µM (inactive) | 4.22 µM (inactive) | 3.42 µM (inactive) | 22.7 µM (inactive) | 20.8 µM (inactive) | 2 µM (inactive) | 18.2 µM (inactive) | 17.8 µM (inactive) | 18.4 µM (inactive) | 16.3 µM (inactive) | 17.7 µM (inactive) | 14.2 µM (inactive) | 17.2 µM (inactive) | 19.7 µM (inactive) | 28.6 µM (inactive) | 17.8 µM (inactive) | 5.97 µM (inactive) |  |
| CCOc1ccccc1NC(=O)C(=O)c1c(O)c2ccc(O)cc2oc1=O | > 100 µM (inactive) | > 100 µM (inactive) | > 100 µM (inactive) | > 100 µM (inactive) | > 100 µM (inactive) | > 100 µM (inactive) | > 100 µM (inactive) | > 100 µM (inactive) | > 100 µM (inactive) | > 100 µM (inactive) | > 100 µM (inactive) | > 100 µM (inactive) | > 100 µM (inactive) | > 100 µM (inactive) | > 100 µM (inactive) | > 100 µM (inactive) | > 100 µM (inactive) | > 100 µM (inactive) | > 100 µM (inactive) |  |
| Cc1ccc(S(=O)(=O)N/N=C/c2oc(-c3ccncc3)c(-c3ccncc3)c2[N+](=O)[O-])cc1 | > 100 µM (inactive) | > 100 µM (inactive) | > 100 µM (inactive) | > 100 µM (inactive) | > 100 µM (inactive) | > 100 µM (inactive) | > 100 µM (inactive) | > 100 µM (inactive) | > 100 µM (inactive) | > 100 µM (inactive) | > 100 µM (inactive) | > 100 µM (inactive) | > 100 µM (inactive) | > 100 µM (inactive) | > 100 µM (inactive) | > 100 µM (inactive) | > 100 µM (inactive) | > 100 µM (inactive) | > 100 µM (inactive) |  |
| CCCCC(=O)OCC(=O)[C@]1(O)Cc2c(O)c3c(c(O)c2[C@@H](OC2CC(NC(=O)C(F)(F)F)C(O)C(C)O2)C1)C(=O)c1c(OC)cccc1C3=O (some centres not stated) | 0.203 µM (active) | 1.52 µM (inactive) | 0.232 µM (active) | 0.135 µM (active) | 0.331 µM (active) | 0.711 µM (active) | 0.0401 µM (active) | 0.0304 µM (active) | 0.403 µM (active) | 0.247 µM (active) | 0.387 µM (active) | 1.06 µM (active) | 1.73 µM (inactive) | 0.308 µM (active) | 2.19 µM (inactive) | 0.351 µM (active) | 1.3 µM (inactive) | 0.261 µM (active) | 0.163 µM (active) | 365 nM (active) |
| CO[C@H]1Nc2c(ccc(C)c2O)C(=O)N2C=C(/C=C/C(N)=O)C[C@@H]12 [ANTHRAMYCIN METHYL ETHER] | 0.047 µM (active) | 0.0541 µM (active) | 0.0163 µM (active) | 0.0193 µM (active) | 0.0269 µM (active) | 0.0261 µM (active) | 0.128 µM (active) | < 0.0234 µM (active) | 0.0183 µM (active) | 0.183 µM (active) | 0.0185 µM (active) | 0.0175 µM (active) | 0.0299 µM (active) | 0.0199 µM (active) | 0.184 µM (active) | 0.0327 µM (active) | 0.0436 µM (active) | 0.0308 µM (active) | 0.0161 µM (active) | 37.7 nM (active) |
